Legend:
Type in all cases: in vivo
[1] = tested on: morningglory (Ipomoea spp.); experiment: Test A pre-/postemergence plant response
Summary of the method: (§1)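 Formulated test chemicals (non-phytotoxic solvent, surfactant) were sprayed onto soil right after planting and simultaneously onto young plants at one to two leaves, 2 to 10 cm tall. Plants stayed in the greenhouse about ten days; injury was then visually scored against untreated controls, from 0 (no effect) to 100 (complete control).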

[2] = tested on: barnyardgrass (Echinochloa crus-galli); experiment: Test A pre-/postemergence plant response
Summary of the method: as §1

corn (Zea mays) = experiment: Test A pre-/postemergence plant response
Summary of the method: as §1

[3] = tested on: pigweed (Amaranthus retroflexus); experiment: Test A pre-/postemergence plant response
Summary of the method: as §1

[4] = tested on: velvetleaf (Abutilon theophrasti); experiment: Test A pre-/postemergence plant response
Summary of the method: as §1

[5] = tested on: wheat (Triticum aestivum); experiment: Test A pre-/postemergence plant response
Summary of the method: as §1

[6] = tested on: giant foxtail (Setaria faberii); experiment: Test A pre-/postemergence plant response
Summary of the method: as §1

[7] = tested on: large crabgrass (Digitaria sanguinalis); experiment: Test A pre-/postemergence plant response
Summary of the method: as §1

rice (Oryza sativa) = experiment: Test B flooded paddy test; settings: for Plant response rating, Flood, Rice: 250 g ai/ha, flooded paddy test, visual rating on 0 to 100 scale (0 no effect, 100 complete control) after 13 to 15 days; for Plant response rating, Rice: Flood (flooded paddy test), 62 g ai/ha, scale 0 to 100, 0 is no effect, 100 is complete control, 13 to 15 days
Summary of the method: (§2)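 Visual scores run from 0 (no effect) to 100 (complete control), assigned by comparison with controls 13 to 15 days after treatment. Test compounds went straight into water standing 3 cm above the soil, around plants at the 2-leaf stage kept in a greenhouse.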

[8] = tested on: barnyardgrass (Echinochloa crus-galli); experiment: Test B flooded paddy test; settings: for Plant response rating, Flood, Barnyardgrass: 250 g ai/ha, flooded paddy test, visual rating on 0 to 100 scale (0 no effect, 100 complete control) after 13 to 15 days; for Plant response rating, Barnyardgrass: Flood (flooded paddy test), 62 g ai/ha, scale 0 to 100, 0 is no effect, 100 is complete control, 13 to 15 days
Summary of the method: as §2

[9] = tested on: umbrella sedge (Cyperus difformis); experiment: Test B flooded paddy test; settings: for Plant response rating, Flood, Sedge, Umbrella: 250 g ai/ha, flooded paddy test, visual rating on 0 to 100 scale (0 no effect, 100 complete control) after 13 to 15 days; for Plant response rating, Sedge, Umbrella: Flood (flooded paddy test), 62 g ai/ha, scale 0 to 100, 0 is no effect, 100 is complete control, 13 to 15 days
Summary of the method: as §2

[10] = tested on: ducksalad (Heteranthera limosa); experiment: Test B flooded paddy test; settings: for Plant response rating, Flood, Ducksalad: 250 g ai/ha, flooded paddy test, visual rating on 0 to 100 scale (0 no effect, 100 complete control) after 13 to 15 days; for Plant response rating, Ducksalad: Flood (flooded paddy test), 62 g ai/ha, scale 0 to 100, 0 is no effect, 100 is complete control, 13 to 15 days
Summary of the method: as §2

[11] = Postemergence, 125 g ai/ha, visual injury, 0 to 100 scale (0 no effect, 100 complete control), approx. ten days
[12] = Postemergence, 500 g ai/ha, 0 to 100 scale, 0 = no effect, 100 = complete control, approx. ten days
[13] = Preemergence, 125 g ai/ha, 0 to 100 scale, 0 = no effect, 100 = complete control
[14] = Preemergence, 500 g ai/ha, visual injury, 0 to 100 scale (0 no effect, 100 complete control), approx. ten days

Structure (SMILES) | Morningglory plant response rating [1, 11] | Plant response rating, Morningglory [1, 12] | Plant response rating, Morningglory [1, 13] | Plant response rating, Morningglory [1, 14] | Barnyardgrass plant response rating [2, 11] | Plant response rating, Barnyardgrass [2, 12] | Plant response rating, Barnyardgrass [2, 13] | Plant response rating, Barnyardgrass [2, 14] | Corn plant response rating (corn (Zea mays); [11]) | Plant response rating, Corn (corn (Zea mays); [12]) | Plant response rating, Corn (corn (Zea mays); [13]) | Plant response rating, Corn (corn (Zea mays); [14]) | Pigweed plant response rating [3, 11] | Plant response rating, Pigweed [3, 12] | Plant response rating, Pigweed [3, 13] | Plant response rating, Pigweed [3, 14] | Velvetleaf plant response rating [4, 11] | Plant response rating, Velvetleaf [4, 12] | Plant response rating, Velvetleaf [4, 13] | Plant response rating, Velvetleaf [4, 14] | further results
O=C1CCCC(O)=C1C(=O)c1cnc(-c2ccc(Cl)cc2)n(-c2ccccc2)c1=O [Compound 25] | 50 | 90 | 0 | 60 | 30 | 90 | 20 | 80 | 0 | 20 | 0 | 0 | 80 | 100 | 50 | 80 | 100 | 100 | 80 | 100 | Wheat plant response rating [5, 11]: 0; Plant response rating, Wheat [5, 12]: 0; Plant response rating, Wheat [5, 13]: 0; Plant response rating, Wheat [5, 14]: 20; Foxtail, Giant plant response rating [6, 11]: 50; Plant response rating, Foxtail, Giant [6, 12]: 90; Plant response rating, Foxtail, Giant [6, 13]: 50; Plant response rating, Foxtail, Giant [6, 14]: 90; Crabgrass, Large plant response rating [7, 11]: 40; Plant response rating, Crabgrass, Large [7, 12]: 90; Plant response rating, Crabgrass, Large [7, 13]: 60; Plant response rating, Crabgrass, Large [7, 14]: 100; Plant response rating, Flood, Rice (rice (Oryza sativa)): 0; Plant response rating, Rice (rice (Oryza sativa)): 0; Plant response rating, Flood, Barnyardgrass [8]: 0; Plant response rating, Barnyardgrass [8]: 0; Plant response rating, Flood, Sedge, Umbrella [9]: 0; Plant response rating, Sedge, Umbrella [9]: 0; Plant response rating, Flood, Ducksalad [10]: 0; Plant response rating, Ducksalad [10]: 0
COc1ccccc1-n1c(-c2ccccc2)ncc(C(=O)C2=C(O)CCCC2=O)c1=O [Compound 15] | 10 | 50 | 0 | 60 | 10 | 40 | 10 | 90 | 0 | 10 | 0 | 0 | 60 | 90 | 30 | 90 | 100 | 100 | 40 | 90 | Wheat plant response rating [5, 11]: 0; Plant response rating, Wheat [5, 12]: 20; Plant response rating, Wheat [5, 13]: 0; Plant response rating, Wheat [5, 14]: 20; Foxtail, Giant plant response rating [6, 11]: 10; Plant response rating, Foxtail, Giant [6, 12]: 70; Plant response rating, Foxtail, Giant [6, 13]: 40; Plant response rating, Foxtail, Giant [6, 14]: 70; Crabgrass, Large plant response rating [7, 11]: 20; Plant response rating, Crabgrass, Large [7, 12]: 70; Plant response rating, Crabgrass, Large [7, 13]: 40; Plant response rating, Crabgrass, Large [7, 14]: 90; Plant response rating, Flood, Rice (rice (Oryza sativa)): 0; Plant response rating, Rice (rice (Oryza sativa)): 0; Plant response rating, Flood, Barnyardgrass [8]: 35; Plant response rating, Barnyardgrass [8]: 20; Plant response rating, Flood, Sedge, Umbrella [9]: 30; Plant response rating, Sedge, Umbrella [9]: 0; Plant response rating, Flood, Ducksalad [10]: 60; Plant response rating, Ducksalad [10]: 0

— US8952024B2, “Herbicidal pyrimidone derivatives” (E I du Pont de Nemours and Company, priority 2009, dated 2015)
